The structures appear in SMILES notation.

Holding throughout (type): cell-based
Test [1] deals with HTT mRNA. Put plainly: Splicing RT-qPCR assay (THP), Table 2A. The settings on record: Table 2A (THP); for AC50: AJ mRNA increase, read-out: HTT AJ (increase in alternative junction mRNA, AC50); for IC50: CJ mRNA decrease, read-out: HTT CJ (decrease in canonical junction mRNA, IC50).
Test [2] relates to MYB mRNA. Description: Splicing RT-qPCR assay (THP), Table 2A. The settings on record: Table 2A (THP); for AC50: AJ mRNA increase, read-out: MYB AJ (increase in alternative junction mRNA, AC50); for IC50: CJ mRNA decrease, read-out: MYB CJ (decrease in canonical junction mRNA, IC50).
Test [3] concerns HTT mRNA. Put plainly: Gene panel canonical junction qPCR assay, decrease in CJ mRNA, Table 3. The settings on record: decrease in canonical junction (CJ) mRNA, gene panel qPCR, Table 3. The procedure, abridged: (§1)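 A673 (DMEM, 10% FBS, 15,000 cells/well) or K562 (IMDM, 10% FBS) cells treated 24 h at 37 °C with 11-point 3-fold dilutions, top 10 uM, DMSO ≤0.25%. Canonical exon-exon junction mRNA measured by RT-qPCR, normalized to GAPDH, GUSB or PPIA and DMSO (ΔΔCt); IC50 from 4-parameter logistic fit.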

Test [4] deals with MYB mRNA. The description is as above. The settings on record: decrease in canonical junction (CJ) mRNA, gene panel qPCR, Table 3. The procedure, abridged: as §1
The subject of test [5] is SH-SY5Y (human neuroblastoma) cells. Put plainly: Cell viability, Cell Titer Glo 2.0 assay. The settings on record: read-out: Viability SHSY5Y.3 GI50. In outline:
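Toxicity screen in SH-SY5Y cells. Compounds were serially diluted in DMSO and then in medium, giving 0.1% DMSO final. Viability was read with CellTiter-Glo 2.0 after 72 h at 37 °C, 5% CO2, against medium-only blank wells.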

`Cc1cn2cc(NC(=O)c3ccc(N4CC5CNCC5C4)c4cn(C)nc34)nc2c(C)n1` (stereo not shown) [Compound 526]: the AC50 with HTT mRNA [1] and in the test with MYB mRNA [2] was 1000 to 10000 nM throughout. In addition, the IC50 with HTT mRNA [1], in the test on MYB mRNA [2], in the test with HTT mRNA [3] and in the test with MYB mRNA [4] was 1000 to 10000 nM in each case. For the same molecule, in test [5], the GI50 lay in the range of 1000 to 10000 nM.

On to `CNCC1CCN(c2ccc(C(=O)Nc3cn4cc(C)nc(C)c4n3)c3nn(C)cc23)C1` (stereo not shown) [Compound 527], for which the concentration at half-maximal activity (AC50) in the test on HTT mRNA [1] and in the test with MYB mRNA [2] was 100 to 1000 nM each time. The IC50 with HTT mRNA [1], in the test with MYB mRNA [2], in the test on HTT mRNA [3] and in the test on MYB mRNA [4] was 100 to 1000 nM in each case. In test [5], the GI50 lay within 100 to 1000 nM.

`Cc1cn2cc(NC(=O)c3ccc(N4CCC(N5CCNCC5)C4)c4cn(C)nc34)nc2c(C)n1` (stereo not shown) [Compound 528]: the AC50 in the test with HTT mRNA [1] and in the test with MYB mRNA [2] was 100 to 1000 nM throughout. In addition, the IC50 with HTT mRNA [1], in the test on MYB mRNA [2], with HTT mRNA [3] and in the test on MYB mRNA [4] was 100 to 1000 nM each time. Also, the GI50 in test [5] was in the range of 100 to 1000 nM.

Take `Cc1cn2cc(NC(=O)c3ccc(N4CCC5(CCCN5)CC4)c4cn(C)nc34)nc2c(C)n1` [Compound 529]: the AC50 in the test with HTT mRNA [1] was greater than 10000 nM; in the test on MYB mRNA [2], 100 to 1000 nM. For the same molecule, the IC50 in the test on HTT mRNA [1] was greater than 10000 nM; in the test on MYB mRNA [2] it was 100 to 1000 nM; in the test with HTT mRNA [3], greater than 10000 nM; with MYB mRNA [4] it was 100 to 1000 nM. Besides, the GI50 in test [5] lay in the range of 1000 to 10000 nM.

As for `Cc1cn2cc(NC(=O)c3ccc(N4CCC5NCC5C4)c4cn(C)nc34)nc2c(C)n1` (stereo not shown) [Compound 530], the half-maximal activity concentration (AC50) in the test on HTT mRNA [1] and in the test with MYB mRNA [2] was greater than 10000 nM each time. Also, the IC50 in the test with HTT mRNA [1] is greater than 10000 nM; with MYB mRNA [2] it was 1000 to 10000 nM; in the test on HTT mRNA [3] it was greater than 10000 nM; with MYB mRNA [4] it was 1000 to 10000 nM. In test [5], the GI50 was greater than 10000 nM.

With `Cc1cn2cc(NC(=O)c3ccc(N4CCC5NCCC5C4)c4cn(C)nc34)nc2c(C)n1` (stereo not shown) [Compound 531], the figures for the AC50 with HTT mRNA [1] and with MYB mRNA [2] were greater than 10000 nM and 1000 to 10000 nM, respectively. Moreover, the IC50 was greater than 10000 nM in the test with HTT mRNA [1], 1000 to 10000 nM in the test on MYB mRNA [2], greater than 10000 nM in the test on HTT mRNA [3] and 1000 to 10000 nM in the test on MYB mRNA [4]. Further, the GI50 in test [5] fell in the range of 1000 to 10000 nM.

Regarding `CNCC1CCN(c2ccc(C(=O)Nc3cn4cc(C)nc(C)c4n3)c3nn(C)cc23)CC1` [Compound 532], the AC50 with HTT mRNA [1] and in the test with MYB mRNA [2] was 100 to 1000 nM each time. Moreover, the IC50 in the test with HTT mRNA [1], in the test with MYB mRNA [2], in the test on HTT mRNA [3] and with MYB mRNA [4] was 100 to 1000 nM throughout. Further, in test [5], the GI50 is 100 to 1000 nM.

As to `Cc1cn2cc(NC(=O)c3ccc(N4CCN(C5CNC5)CC4)c4cn(C)nc34)nc2c(C)n1` [Compound 533], the AC50 in the test with HTT mRNA [1] and with MYB mRNA [2] was 100 to 1000 nM throughout. Further, the IC50 in the test with HTT mRNA [1], in the test with MYB mRNA [2], in the test on HTT mRNA [3] and in the test on MYB mRNA [4] was 100 to 1000 nM throughout. In addition, in test [5], the 50% growth inhibitory concentration (GI50) lay within 100 to 1000 nM.

Take `CNCC1CCCN(c2ccc(C(=O)Nc3cn4cc(C)nc(C)c4n3)c3nn(C)cc23)C1` (stereo not shown) [Compound 534]: the AC50 in the test on HTT mRNA [1] and in the test with MYB mRNA [2] was greater than 10000 nM throughout. Besides, the IC50 in the test with HTT mRNA [1], in the test on MYB mRNA [2], in the test on HTT mRNA [3] and in the test with MYB mRNA [4] was greater than 10000 nM each time. Moreover, the 50% growth inhibitory concentration (GI50) in test [5] was greater than 10000 nM.

As to `Cc1cn2cc(NC(=O)c3ccc(N4CCNC(C)CC4)c4cn(C)nc34)nc2c(C)n1` (stereo not shown) [Compound 535], the AC50 in the test with HTT mRNA [1] and in the test with MYB mRNA [2] was 1000 to 10000 nM in each case. Also, the IC50 in the test with HTT mRNA [1], in the test on MYB mRNA [2], in the test with HTT mRNA [3] and in the test on MYB mRNA [4] was 1000 to 10000 nM each time. In addition, the GI50 in test [5] is 1000 to 10000 nM.

With `Cc1cn2cc(NC(=O)c3ccc(NC4CCCNCC4)c4cn(C)nc34)nc2c(C)n1` (stereo not shown) [Compound 536], the AC50 in the test on HTT mRNA [1] and with MYB mRNA [2] was greater than 10000 nM in each case. Moreover, the IC50 in the test on HTT mRNA [1], in the test with MYB mRNA [2], with HTT mRNA [3] and in the test with MYB mRNA [4] was greater than 10000 nM throughout. In addition, the GI50 in test [5] is greater than 10000 nM.

For `Cc1cn2cc(NC(=O)c3ccc(OC4CCNC4)c4cn(C)nc34)nc2c(C)n1` (stereo not shown) [Compound 537], the AC50 in the test on HTT mRNA [1] and with MYB mRNA [2] was greater than 10000 nM in each case. In addition, the IC50 in the test with HTT mRNA [1], in the test with MYB mRNA [2], with HTT mRNA [3] and in the test with MYB mRNA [4] was greater than 10000 nM in each case. For the same molecule, the GI50 in test [5] was greater than 10000 nM.

With `CNCC1CCN(c2ccc(C(=O)Nc3cc4cn(C)nc4cc3OC)c3nn(C)cc23)C1` (stereo not shown) [Compound 538], the half-maximal activity concentration (AC50) in the test with HTT mRNA [1] is greater than 10000 nM; in the test with MYB mRNA [2], 100 to 1000 nM. For the same molecule, the IC50 is greater than 10000 nM in the test on HTT mRNA [1], 100 to 1000 nM with MYB mRNA [2], greater than 10000 nM with HTT mRNA [3] and 100 to 1000 nM with MYB mRNA [4]. Besides, the GI50 in test [5] fell in the range of 1000 to 10000 nM.

On to `COc1cc2nn(C)cc2cc1NC(=O)c1ccc(N2CCC(N3CCNCC3)C2)c2cn(C)nc12` (stereo not shown) [Compound 539], for which the values for the AC50 in the test with HTT mRNA [1] and in the test with MYB mRNA [2] were 1000 to 10000 nM and greater than 10000 nM, respectively. For the same molecule, the IC50 with HTT mRNA [1], with MYB mRNA [2], in the test with HTT mRNA [3] and in the test with MYB mRNA [4] was greater than 10000 nM throughout. Besides, the 50% growth inhibitory concentration (GI50) in test [5] was greater than 10000 nM.

As to `COc1cc2nn(C)cc2cc1NC(=O)c1ccc(N2CCC3(CCN3)CC2)c2cn(C)nc12` [Compound 540], the AC50 with HTT mRNA [1] is 1000 to 10000 nM; with MYB mRNA [2], less than 100 nM. In addition, the IC50 with HTT mRNA [1] was 1000 to 10000 nM; with MYB mRNA [2] it was less than 100 nM; with HTT mRNA [3], 1000 to 10000 nM; in the test with MYB mRNA [4], less than 100 nM. For the same molecule, the 50% growth inhibitory concentration (GI50) in test [5] fell in the range of 1000 to 10000 nM.

In the case of `COc1cc2nn(C)cc2cc1NC(=O)c1ccc(N2CCC3(CCCN3)CC2)c2cn(C)nc12` [Compound 541], the AC50 in the test with HTT mRNA [1] was 100 to 1000 nM; with MYB mRNA [2], less than 100 nM. In addition, the half-inhibitory concentration (IC50) in the test on HTT mRNA [1] was 100 to 1000 nM; with MYB mRNA [2], less than 100 nM; in the test on HTT mRNA [3], 100 to 1000 nM; in the test on MYB mRNA [4], less than 100 nM. In addition, the GI50 in test [5] was 1000 to 10000 nM.

Regarding `COc1cc2nn(C)cc2cc1NC(=O)c1ccc(N2CCC3NCC3C2)c2cn(C)nc12` (stereo not shown) [Compound 542], the AC50 is greater than 10000 nM with HTT mRNA [1] and 100 to 1000 nM with MYB mRNA [2]. Further, the IC50 with HTT mRNA [1] was greater than 10000 nM; with MYB mRNA [2], 1000 to 10000 nM; with HTT mRNA [3], greater than 10000 nM; in the test with MYB mRNA [4], 1000 to 10000 nM. Besides, in test [5], the GI50 was greater than 10000 nM.

With `COc1cc2nn(C)cc2cc1NC(=O)c1ccc(N2CCC3NCCC3C2)c2cn(C)nc12` (stereo not shown) [Compound 543], the AC50 lay within 1000 to 10000 nM in the test with HTT mRNA [1] and 100 to 1000 nM with MYB mRNA [2]. Moreover, the IC50 in the test with HTT mRNA [1] fell in the range of 1000 to 10000 nM; in the test with MYB mRNA [2], 100 to 1000 nM; in the test on HTT mRNA [3] it was 1000 to 10000 nM; in the test with MYB mRNA [4], 100 to 1000 nM. In addition, in test [5], the GI50 was 1000 to 10000 nM.

On to `COc1cc2nn(C)cc2cc1NC(=O)c1ccc(N2CCN(C3CNC3)CC2)c2cn(C)nc12` [Compound 544], for which the AC50 in the test on HTT mRNA [1] and in the test on MYB mRNA [2] was 100 to 1000 nM in each case. The IC50 with HTT mRNA [1], with MYB mRNA [2], in the test on HTT mRNA [3] and in the test with MYB mRNA [4] was 100 to 1000 nM throughout. Also, the GI50 in test [5] fell in the range of 100 to 1000 nM.
